{
  "source": "patent US8895561B2",
  "about": "“Compounds and methods for treating candidiasis and aspergillus infections” (Cellceutix Corporation, priority 2012, dated 2014)",
  "type_in_all_cases": "cell-based",
  "key": {"[1]": {"system": "C. albicans GDH2346 hyphal biofilm", "assay": "Candida IC50 in the hyphal state / hyphal biofilm, MTS viability assay", "conditions": "2-day hyphal biofilm cultures; for IC50: Candida albicans, 48 h, read-out: Anti-C. albicans GDH2346 Hyphal (IC50)", "method": "Candida IC50s were determined by OD600 and fluorescence from vegetative cells and by MTS viability assay in the hyphal state. MICs were determined using a broth microdilution assay under standard CLSI conditions Bacteria strains: E. coli 25922 (EC), S. aureus 27660 (SA), E. faecalis 29212 (EF), P. aeruginosa 10145 (PA), and K. pneumoniae 13883 (KP). Cytotoxicity (EC50) was determined against mouse 3T3 fibroblasts, human transformed liver HepG2 cells, and human oral keratinocyte cell line, OKF6/TERT using an MTS viability assay. Candida IC50s<10 μg/mL, MICs<5 μg/mL and cytotoxicity EC50s>100 μM are indicated in green. MICs>5 μg/mL and cytotoxicity EC50s<100 μM are indicated in red. To form the biofilm, yeast were grown in RPMI/MOPS, 0.4% sucrose pH7.4 media supplemented with 10% FBS in tissue culture-treated flat bottom 96 well plates for 48 hours. The filamentous yeast cultures were then vigorously washed to remove any non-filamentous, non-attached yeast. The remaining attached filamentous biofilm yeast were incubated in saline containing serially diluted compounds for 24 hours. The cultures were aspirated to remove compound, rinsed and overlayed with RPMI/MOPS, 0.4% sucrose pH7.4 media. Biofilm viability was measured using a cell proliferation assay (CellTiter96 Aqueous Kit from Promega) and IC50s were determined using Prism GraphPad software (nonlinear fit, Table 3)."}, "[2]": {"system": "C. albicans GDH2346", "assay": "Candida IC50, vegetative cells, by OD600 and fluorescence", "conditions": "vegetative cultures; for IC50: Candida albicans, GDH2346, read-out: Anti-C. albicans GDH2346 Vegetative (IC50)", "method": "Candida IC50s were determined by OD600 and fluorescence from vegetative cells and by MTS viability assay in the hyphal state. MICs were determined using a broth microdilution assay under standard CLSI conditions Bacteria strains: E. coli 25922 (EC), S. aureus 27660 (SA), E. faecalis 29212 (EF), P. aeruginosa 10145 (PA), and K. pneumoniae 13883 (KP). Cytotoxicity (EC50) was determined against mouse 3T3 fibroblasts, human transformed liver HepG2 cells, and human oral keratinocyte cell line, OKF6/TERT using an MTS viability assay. Candida IC50s<10 μg/mL, MICs<5 μg/mL and cytotoxicity EC50s>100 μM are indicated in green. MICs>5 μg/mL and cytotoxicity EC50s<100 μM are indicated in red. Candida IC50s (CA) were determined by OD600 and fluorescence from vegetative cells. MICs were determined using a broth microdilution assay under standard CLSI conditions Bacteria strains: E. coli 25922 (EC), S. aureus 27660 (SA), E. faecalis 29212 (EF), P. aeruginosa 10145 (PA), and K. pneumoniae 13883 (KP). Cytotoxicity (EC50) was determined against mouse 3T3 fibroblasts and human transformed liver HepG2 cells using an MTS viability assay. For determination of anti-Candida IC50s, the method was modified by using RPMI/MOPS buffer pH 6.3 and by addition of FDGlu, a substrate for the yeast enzyme exoglucanase which is secreted during cell growth. This provides a fluorescent readout for cell growth which was used in addition to the traditional optical density measure of growth. OD600 and fluorescence were determined at 24 and 48 hours and the average of all 4 reads was used for the final IC50 determination."}, "[3]": {"system": "C. albicans GDH2346", "assay": "Candida MIC, CLSI M27-A3", "conditions": "Table 5; for MIC: Candida albicans, GDH2346, read-out: MIC C. albicans", "method": "(§1) Candida MIC assays were determined in accordance with CLSI guidelines M27-A3 using a clinically isolated C. albicans strain, GDH2346.50% human serum was added to determine activity in the presence of serum."}, "[4]": {"system": "C. parapsilosis (ATCC 22019)", "assay": "Yeast MIC", "conditions": "for MIC: Lodderomyces parapsilosis, ATCC22019", "method": "as §1\n(§2) CLSI conditions Bacteria strains: clinical isolates; yeast strains: C. dubliniensis (NCPF3949), C. glabrata (ATCC 90030), C. krusei (ATCC 6258), C. parapsilosis (ATCC 22019), and C. tropicalis (ATCC 750). Cytotoxicity (EC50) was determined against mouse 3T3 fibroblasts, human transformed liver HepG2 cells, and human oral keratinocyte cell line, OKF6/TERT using an MTS viability assay."}, "[5]": {"system": "C. krusei (ATCC 6258)", "assay": "Yeast MIC", "conditions": "for MIC: Pichia kudriavzevii, ATCC6258", "method": "as §1, §2"}, "[6]": {"system": "C. tropicalis (ATCC 750)", "assay": "Yeast MIC", "conditions": "for MIC: Candida tropicalis, ATCC750", "method": "as §1, §2"}, "[7]": {"system": "C. dubliniensis (NCPF3949)", "assay": "Yeast MIC", "conditions": "Table 5; for MIC: Candida dubliniensis, NCPF3949, read-out: MIC C. dubliniensis", "method": "as §1, §2"}, "[8]": {"system": "C. glabrata (ATCC 90030)", "assay": "Yeast MIC", "conditions": "Table 5; for MIC: Nakaseomyces glabratus, ATCC90030, read-out: MIC C. glabrata", "method": "as §1, §2"}, "[9]": {"system": "A. viscosis", "assay": "Commensal bacteria MIC, broth microdilution", "method": "(§3) Bacterial MICs were determined using a broth microdilution assay under standard\nas §2"}, "[10]": {"system": "S. salivarius", "assay": "Commensal bacteria MIC, broth microdilution", "conditions": "for MIC: Streptococcus salivarius", "method": "as §3, §2"}},
  "data": [
    {"smiles": "NCCc1cc(Br)cc(C#Cc2cccc(C#Cc3cc(Br)cc(CCN)c3)c2)c1", "note": "[Compound 164]", "values": [
      {"measurement": "IC50", "setting": "[1]", "result": 11, "unit": "µg/mL"},
      {"measurement": "IC50", "setting": "[2]", "result": 4.88, "unit": "µg/mL"}
    ]},
    {"smiles": "N=C(N)NCCc1cccc(-c2ccc(-c3cccc(CCNC(=N)N)c3)s2)c1", "note": "[Compound 185]", "values": [
      {"measurement": "MIC", "setting": "[3]", "result": 2, "unit": "µg/mL"},
      {"measurement": "IC50", "setting": "[1]", "result": 1, "unit": "µg/mL"},
      {"measurement": "IC50", "setting": "[2]", "result": 1.09, "unit": "µg/mL"},
      {"measurement": "MIC", "setting": "[4]", "result": 2, "unit": "µg/mL"},
      {"measurement": "MIC", "setting": "[5]", "result": 2, "unit": "µg/mL"},
      {"measurement": "MIC", "setting": "[6]", "result": 0.5, "unit": "µg/mL"},
      {"measurement": "MIC", "setting": "[7]", "result": 2, "unit": "µg/mL"},
      {"measurement": "MIC", "setting": "[8]", "result": 2, "unit": "µg/mL"},
      {"measurement": "MIC", "setting": "[9]", "result": 4, "unit": "µg/mL"},
      {"measurement": "MIC", "setting": "[10]", "result": 8, "unit": "µg/mL"}
    ]},
    {"smiles": "N=C(N)NCCc1cccc(-c2ccc(-c3cccc(CCNC(=N)N)c3)cc2)c1", "note": "[Compound 186]", "values": [
      {"measurement": "MIC", "setting": "[3]", "result": 2, "unit": "µg/mL"},
      {"measurement": "IC50", "setting": "[1]", "result": 1.4, "unit": "µg/mL"},
      {"measurement": "IC50", "setting": "[2]", "result": 1.03, "unit": "µg/mL"},
      {"measurement": "MIC", "setting": "[4]", "result": 2, "unit": "µg/mL"},
      {"measurement": "MIC", "setting": "[5]", "result": 2, "unit": "µg/mL"},
      {"measurement": "MIC", "setting": "[6]", "result": 0.5, "unit": "µg/mL"},
      {"measurement": "MIC", "setting": "[7]", "result": 2, "unit": "µg/mL"},
      {"measurement": "MIC", "setting": "[8]", "result": 2, "unit": "µg/mL"},
      {"measurement": "MIC", "setting": "[9]", "result": 4, "unit": "µg/mL"},
      {"measurement": "MIC", "setting": "[10]", "result": 8, "unit": "µg/mL"}
    ]},
    {"smiles": "N=C(N)NCCc1cccc(-c2ccc(-c3cccc(CCNC(=N)N)c3)o2)c1", "note": "[Compound 187]", "values": [
      {"measurement": "MIC C. albicans", "setting": "[3]", "result": 2, "unit": "µg/mL"},
      {"measurement": "Anti-C. albicans GDH2346 Vegetative (IC50)", "setting": "[2]", "result": 2.20, "unit": "µg/mL"},
      {"measurement": "MIC C. parapsilosis", "setting": "[4]", "result": 4, "unit": "µg/mL"},
      {"measurement": "MIC C. krusei", "setting": "[5]", "result": 4, "unit": "µg/mL"},
      {"measurement": "MIC C. tropicalis", "setting": "[6]", "result": 0.5, "unit": "µg/mL"},
      {"measurement": "MIC C. dubliniensis", "setting": "[7]", "result": 4, "unit": "µg/mL"},
      {"measurement": "MIC C. glabrata", "setting": "[8]", "result": 4, "unit": "µg/mL"},
      {"measurement": "MIC A. viscosis", "setting": "[9]", "result": 8, "unit": "µg/mL"},
      {"measurement": "MIC S. salivarius", "setting": "[10]", "result": 32, "unit": "µg/mL"}
    ]},
    {"smiles": "N=C(N)NCCc1cccc(-c2cnc(-c3cccc(CCNC(=N)N)c3)s2)c1", "note": "[Compound 188]", "values": [
      {"measurement": "MIC C. albicans", "setting": "[3]", "result": 2, "unit": "µg/mL"},
      {"measurement": "Anti-C. albicans GDH2346 Hyphal (IC50)", "setting": "[1]", "result": 2.22, "unit": "µg/mL"},
      {"measurement": "Anti-C. albicans GDH2346 Vegetative (IC50)", "setting": "[2]", "result": 2.08, "unit": "µg/mL"},
      {"measurement": "MIC C. parapsilosis", "setting": "[4]", "result": 4, "unit": "µg/mL"},
      {"measurement": "MIC C. krusei", "setting": "[5]", "result": 4, "unit": "µg/mL"},
      {"measurement": "MIC C. tropicalis", "setting": "[6]", "result": 0.5, "unit": "µg/mL"},
      {"measurement": "MIC C. dubliniensis", "setting": "[7]", "result": 4, "unit": "µg/mL"},
      {"measurement": "MIC C. glabrata", "setting": "[8]", "result": 4, "unit": "µg/mL"},
      {"measurement": "MIC A. viscosis", "setting": "[9]", "result": 16, "unit": "µg/mL"},
      {"measurement": "MIC S. salivarius", "setting": "[10]", "result": 64, "unit": "µg/mL"}
    ]}
  ]
}
